Laboratory results: patent US7799343B2, “Safer control of broadleaf weeds in turf with granular formulations of ALS inhibiting herbicides” (priority 2006, dated 2010)

Columns and labels:
Format in all cases: in vivo
tall fescue = experiment: Turf tolerance field study, tall fescue, Indiana 2004; settings: 14 Days After Treatment, g ai/Ha: penoxsulam 35, imazaquin 104, bispyribac-sodium 75, trifloxysulfuron-sodium 9.2, metsulfuron-methyl 10.4; for Cover: 0 = bare ground, 100 = thick solid stand; for Color: 0 = brown to dead turf, 10 = lush green; for Injury: 0 = no visible injury, 10 = dead turf
Procedure: (§1) Turf tolerance studies were conducted in monoculture stands of perennial ryegrass and tall fescue. Replicated trials, containing a minimum of three replications and having individual plots ranging in size from 25 to 50 ft. sq (2.3 to 4.6 square meters), were initiated in the late spring when turf was actively growing. […] Natural rainfall and supplemental irrigation, fertilizer, fungicides and insecticides were used to maintain healthy turf throughout the study period. Turf tolerance evaluations were made weekly for 8 weeks after application. Evaluations compared treated and untreated plot areas and consisted of one or all of the following evaluations: 1) visual estimate of turf injury made on a 0 to 10 scale with 0 indicating no visible injury symptoms, 10 being dead turf and 3 or less being commercially acceptable; 2) visual estimate of turf color made on a 0 to 10 scale with 0 being brown to dead turf, 10 being a lush green turf of highest quality and 6.5 being commercially acceptable; 3) visual estimate of turf density made on a 0 to 100 scale with 0 being bare ground, 100 being a thick solid stand of highest quality and 90 percent density being commercially acceptable; 4) visual estimate of turf quality made on a 0 to 10 scale with 0 being brown to dead turf, 10 being a lush green turf of highest quality and 6.5 being commercially acceptable.

perennial ryegrass [1] = experiment: Turf tolerance field study, perennial ryegrass, Indiana 2004; settings: 21 Days After Treatment, g ai/Ha: penoxsulam 35, imazaquin 104, bispyribac-sodium 75, trifloxysulfuron-sodium 9.2, metsulfuron-methyl 10.4; for Cover: 0 = bare ground, 100 = thick solid stand; for Color: 0 = brown to dead turf, 10 = lush green; for Injury: 0 = no visible injury, 10 = dead turf
Procedure: as §1

perennial ryegrass [2] = experiment: Perennial ryegrass turf quality field study, Pennsylvania 2004; settings: perennial ryegrass, 0 = brown to dead turf, 10 = highest quality, g ai/Ha: penoxsulam 35, imazaquin 104, bispyribac-sodium 75, trifloxysulfuron-sodium 9.2, metsulfuron-methyl 10.4; for Turf Quality 4 DAA: 4 Days After Application; for Turf Quality 16 DAA: 16 Days After Application; for Turf Quality 36 DAA: 36 Days After Application
Procedure: as §1

[3] = tested on: dandelion, Taraxacum officinale (TAROF); experiment: Postemergent weed control field study, Pennsylvania 2004, TAROF; settings: Granule formulation, g ai/Ha: penoxsulam 35, imazaquin 104, bispyribac-sodium 75, trifloxysulfuron-sodium 9.2, metsulfuron-methyl 10.4; for Percent Weed Control TAROF 29DAA: 29 Days After Application; for Percent Weed Control TAROF 56DAA: 56 Days After Application
Source text: (§2) The ALS inhibiting herbicides are useful in controlling broadleaf weeds and sedges in turfgrass. They are particularly effective against most important weeds in this application, viz., white clover, Trifolium repens L. (TRFRE); buckhorn plantain, Plantago lanceolata L. (PLALA); dandelion, Taraxacum officinale (TAROF); broadleaf plantain, Plantago major L. (PLAMA); ground ivy, Glechoma hederacea L. (GLEHE); common lespedeza, Lespedeza striata (LESST); pennywort (dollarweed), Hydrocotyle spp (HYDSS); Virginia buttonweed, Diodia virginiana L. (DIQVI) English daisy, Bellis perennis L. (BELPE); annual bluegrass, Poa annua (POANN); and yellow nutsedge, Cypres esculentus L. (CYPES).
(§3) Field studies were conducted in established turfgrass sites containing a natural population of target broadleaf weeds. Replicated trials, containing a minimum of three replications and having individual plots ranging in size from 25 to 50 ft. sq (2.3 to 4.6 square meters), were initiated in the late spring when turf and weeds were actively growing. Granule treatments were uniformly applied to individual plots using a common hand-shaker method. Applications were made in the early morning when dew was present. Natural rainfall and supplemental irrigation were used to maintain healthy turf and active weed growth throughout the study period. Control of each weed species in the study site was made at approximately 2, 4 and 8 weeks after treatment. Control was determined visually by comparing treated and untreated weeds and scored on a 0 to 100 percent scale where 0 corresponds to no control and 100 corresponds to complete kill.

[4] = tested on: white clover, Trifolium repens L. (TRFRE); experiment: Postemergent weed control field study, Pennsylvania 2004, TRFRE; settings: g ai/Ha: penoxsulam 35, imazaquin 104, bispyribac-sodium 75, trifloxysulfuron-sodium 9.2, metsulfuron-methyl 10.4; for Percent Weed Control TRFRE 29DAA: 29 Days After Application; for Percent Weed Control TRFRE 56DAA: 56 Days After Application
Source text: as §2
as §3, with “Granule treatments were uniformly applied to individual plots using a common hand-shaker method.” left out

[5] = tested on: buckhorn plantain, Plantago lanceolata L. (PLALA); experiment: Postemergent weed control field study, Pennsylvania 2004, PLALA; settings: g ai/Ha: penoxsulam 35, imazaquin 104, bispyribac-sodium 75, trifloxysulfuron-sodium 9.2, metsulfuron-methyl 10.4; for Percent Weed Control PLALA 29DAA: 29 Days After Application; for Percent Weed Control PLALA 56DAA: 56 Days After Application
Source text: as §2
as §3, with “Granule treatments were uniformly applied to individual plots using a common hand-shaker method.” left out

[6] = tested on: annual bluegrass, Poa annua (POANN); experiment: Postemergent weed control field study, Pennsylvania 2004, POANN; settings: g ai/Ha: penoxsulam 35, imazaquin 104, bispyribac-sodium 75, trifloxysulfuron-sodium 9.2, metsulfuron-methyl 10.4; for Percent Weed Control POANN 29DAA: 29 Days After Application; for Percent Weed Control POANN 56DAA: 56 Days After Application
Source text: as §2, §3

[7] = tested on: dandelion, Taraxacum officinale (TAROF); experiment: Postemergent weed control field study, Pennsylvania 2004, TAROF; settings: Liquid formulation, g ai/Ha: penoxsulam 35, imazaquin 104, bispyribac-sodium 75, trifloxysulfuron-sodium 9.2, metsulfuron-methyl 10.4; for Percent Weed Control TAROF 29DAA: 29 Days After Application; for Percent Weed Control TAROF 56DAA: 56 Days After Application

COc1cc(OC)nc(Oc2cccc(Oc3nc(OC)cc(OC)n3)c2C(=O)O)n1 [Bispyribac-sodium, bispyribac-sodium]
Cover (tall fescue; Granule formulation): 100.0 0-100 Scale
Color (tall fescue; Granule formulation): 9.0 0-10 Scale
Injury (tall fescue; Granule formulation): 0.0 0-10 Scale
Cover (tall fescue; Liquid formulation): 97.5 0-100 Scale
Color (tall fescue; Liquid formulation): 8.8 0-10 Scale
Injury (tall fescue; Liquid formulation): 2.0 0-10 Scale
Cover (perennial ryegrass [1]; Granule formulation): 100.0 0-100 Scale
Color (perennial ryegrass [1]; Granule formulation): 8.5 0-10 Scale
Injury (perennial ryegrass [1]; Granule formulation): 1.0 0-10 Scale
Cover (perennial ryegrass [1]; Liquid formulation): 85.0 0-100 Scale
Color (perennial ryegrass [1]; Liquid formulation): 6.5 0-10 Scale
Injury (perennial ryegrass [1]; Liquid formulation): 4.5 0-10 Scale
Turf Quality 4 DAA (perennial ryegrass [2]; Granule formulation): 8.7 0 to 10 scale
Turf Quality 16 DAA (perennial ryegrass [2]; Granule formulation): 7.3 0 to 10 scale
Turf Quality 36 DAA (perennial ryegrass [2]; Granule formulation): 10.0 0 to 10 scale
Turf Quality 4 DAA (perennial ryegrass [2]; Liquid formulation): 8.0 0 to 10 scale
Turf Quality 16 DAA (perennial ryegrass [2]; Liquid formulation): 5.7 0 to 10 scale
Turf Quality 36 DAA (perennial ryegrass [2]; Liquid formulation): 10.0 0 to 10 scale
Percent Weed Control TAROF 29DAA [3]: 45.0%
Percent Weed Control TAROF 56DAA [3]: 23.3%
Percent Weed Control TRFRE 29DAA ([4]; Granule formulation): 36.1%
Percent Weed Control TRFRE 29DAA ([4]; Liquid formulation): 88.9%
Percent Weed Control TRFRE 56DAA ([4]; Liquid formulation): 55.6%
Percent Weed Control PLALA 29DAA ([5]; Granule formulation): 27.8%
Percent Weed Control PLALA 56DAA ([5]; Granule formulation): 27.8%
Percent Weed Control PLALA 29DAA ([5]; Liquid formulation): 75.6%
Percent Weed Control PLALA 56DAA ([5]; Liquid formulation): 57.8%
Percent Weed Control POANN 29DAA ([6]; Granule formulation): 40.0%
Percent Weed Control POANN 56DAA ([6]; Granule formulation): 28.9%
Percent Weed Control POANN 29DAA ([6]; Liquid formulation): 28.3%
Percent Weed Control POANN 56DAA ([6]; Liquid formulation): 23.3%
Percent Weed Control TAROF 29DAA [7]: 95.7%
Percent Weed Control TAROF 56DAA [7]: 57.1%

CC(C)C1(C)N=C(c2nc3ccccc3cc2C(=O)O)NC1=O (centres unmarked) [Imazaquin, imazaquin]
Cover (tall fescue; Granule formulation): 100.0 0-100 Scale
Color (tall fescue; Granule formulation): 9.0 0-10 Scale
Injury (tall fescue; Granule formulation): 0.5 0-10 Scale
Cover (tall fescue; Liquid formulation): 70.0 0-100 Scale
Color (tall fescue; Liquid formulation): 5.3 0-10 Scale
Injury (tall fescue; Liquid formulation): 5.3 0-10 Scale
Cover (perennial ryegrass [1]; Granule formulation): 98.8 0-100 Scale
Color (perennial ryegrass [1]; Granule formulation): 8.8 0-10 Scale
Injury (perennial ryegrass [1]; Granule formulation): 1.8 0-10 Scale
Cover (perennial ryegrass [1]; Liquid formulation): 97.5 0-100 Scale
Color (perennial ryegrass [1]; Liquid formulation): 8.3 0-10 Scale
Injury (perennial ryegrass [1]; Liquid formulation): 3.3 0-10 Scale
Turf Quality 4 DAA (perennial ryegrass [2]; Granule formulation): 10.0 0 to 10 scale
Turf Quality 16 DAA (perennial ryegrass [2]; Granule formulation): 3.0 0 to 10 scale
Turf Quality 36 DAA (perennial ryegrass [2]; Granule formulation): 3.3 0 to 10 scale
Turf Quality 4 DAA (perennial ryegrass [2]; Liquid formulation): 7.7 0 to 10 scale
Turf Quality 16 DAA (perennial ryegrass [2]; Liquid formulation): 3.3 0 to 10 scale
Turf Quality 36 DAA (perennial ryegrass [2]; Liquid formulation): 7.7 0 to 10 scale
Percent Weed Control TAROF 29DAA [3]: 13.9%
Percent Weed Control TAROF 56DAA [3]: 17.8%
Percent Weed Control TRFRE 29DAA ([4]; Granule formulation): 0.0%
Percent Weed Control TRFRE 56DAA ([4]; Granule formulation): 23.3%
Percent Weed Control TRFRE 29DAA ([4]; Liquid formulation): 22.2%
Percent Weed Control TRFRE 56DAA ([4]; Liquid formulation): 11.1%
Percent Weed Control PLALA 29DAA ([5]; Granule formulation): 22.2%
Percent Weed Control PLALA 56DAA ([5]; Granule formulation): 41.1%
Percent Weed Control PLALA 29DAA ([5]; Liquid formulation): 16.7%
Percent Weed Control PLALA 56DAA ([5]; Liquid formulation): 8.3%
Percent Weed Control POANN 29DAA ([6]; Granule formulation): 31.4%
Percent Weed Control POANN 56DAA ([6]; Granule formulation): 18.1%
Percent Weed Control POANN 29DAA ([6]; Liquid formulation): 8.8%
Percent Weed Control POANN 56DAA ([6]; Liquid formulation): 26.2%
Percent Weed Control TAROF 29DAA [7]: 58.9%
Percent Weed Control TAROF 56DAA [7]: 11.1%

COc1cc(OC)nc(NC(=O)[N-]S(=O)(=O)c2ncccc2OCC(F)(F)F)n1.[Na+] [Trifloxysulfuron-sodium, trifloxysulfuron-sodium]
Cover (tall fescue; Granule formulation): 70.0 0-100 Scale
Color (tall fescue; Granule formulation): 5.8 0-10 Scale
Injury (tall fescue; Granule formulation): 5.8 0-10 Scale
Cover (tall fescue; Liquid formulation): 51.3 0-100 Scale
Color (tall fescue; Liquid formulation): 3.8 0-10 Scale
Injury (tall fescue; Liquid formulation): 8.0 0-10 Scale
Cover (perennial ryegrass [1]; Granule formulation): 87.5 0-100 Scale
Color (perennial ryegrass [1]; Granule formulation): 6.8 0-10 Scale
Injury (perennial ryegrass [1]; Granule formulation): 5.3 0-10 Scale
Cover (perennial ryegrass [1]; Liquid formulation): 57.5 0-100 Scale
Color (perennial ryegrass [1]; Liquid formulation): 4.0 0-10 Scale
Injury (perennial ryegrass [1]; Liquid formulation): 8.0 0-10 Scale
Turf Quality 4 DAA (perennial ryegrass [2]; Granule formulation): 9.3 0 to 10 scale
Turf Quality 16 DAA (perennial ryegrass [2]; Granule formulation): 4.3 0 to 10 scale
Turf Quality 36 DAA (perennial ryegrass [2]; Granule formulation): 8.3 0 to 10 scale
Turf Quality 4 DAA (perennial ryegrass [2]; Liquid formulation): 7.7 0 to 10 scale
Turf Quality 16 DAA (perennial ryegrass [2]; Liquid formulation): 2.7 0 to 10 scale
Turf Quality 36 DAA (perennial ryegrass [2]; Liquid formulation): 1.3 0 to 10 scale
Percent Weed Control TAROF 29DAA [3]: 80.6%
Percent Weed Control TAROF 56DAA [3]: 40.0%
Percent Weed Control TRFRE 29DAA ([4]; Granule formulation): 80.0%
Percent Weed Control TRFRE 56DAA ([4]; Granule formulation): 56.7%
Percent Weed Control TRFRE 29DAA ([4]; Liquid formulation): 100.0%
Percent Weed Control TRFRE 56DAA ([4]; Liquid formulation): 100.0%
Percent Weed Control PLALA 29DAA ([5]; Granule formulation): 0.0%
Percent Weed Control PLALA 56DAA ([5]; Granule formulation): 11.1%
Percent Weed Control PLALA 29DAA ([5]; Liquid formulation): 0.0%
Percent Weed Control PLALA 56DAA ([5]; Liquid formulation): 33.3%
Percent Weed Control POANN 29DAA ([6]; Granule formulation): 34.5%
Percent Weed Control POANN 56DAA ([6]; Granule formulation): 39.9%
Percent Weed Control POANN 29DAA ([6]; Liquid formulation): 95.4%
Percent Weed Control POANN 56DAA ([6]; Liquid formulation): 77.2%
Percent Weed Control TAROF 29DAA [7]: 98.3%
Percent Weed Control TAROF 56DAA [7]: 100.0%
